Patent publication US4254111A, “Sterolin products” (Roecar Holdings (Netherlands Antilles) NV, priority 1978, dated 1981)
Converted amounts (≈) assume the structure as drawn.

How the values were obtained:
[1] = tested on: rat paw-oedema / inflammation (Brewer's Yeast); assay: Anti-inflammatory effect, Brewer's Yeast rat paw oedema, intraperitoneal administration; type: in vivo, male Sprague-Dawley rats
Method: (§1) Ten animals were killed 5 hours after the challenge in order to determine the effect of the test substance on the accute inflammatory process. The remaining members of the group were sacrificed after 24 hours and used to assess the effect of the test compound on the secondary, residual inflammatory action of yeast. The average amount of oedema and swelling produced in the right foot by yeast was obtained by subtracting the weight of the foot from the weight obtained of the control (saline) side.
Groups of 20 male Sprague-Dawley rats, weighing 250 (±10 g) were acclimatized to the test environment. The test compound was made up in physiological saline at concentrations allowing the selected dose to be administered intraperitoneally at the rate of 0.1 ml/100 g body weight.
The test agent was administered 1.0 hour before the challenge with Brewer's Yeast. Otherwise the test procedure described under (a) was followed.

[2] = Acute toxicity after a single oral or parenteral dose; type: in vivo, male Sprague-Dawley rats; conditions: intraperitoneal, after 7 days
Method: (§2) The test substance was suspended in a 1% m/v Tylose® solution made up with distilled water. The selected test doses of the compounds were administered by force feeding at the rate of 1.0 ml/100 g body weight 24.0 hrs and 1.0 hour before the intra-plantar administration of the phlogegenic agent. Brewer's Yeast served as the inflammation-inducing substance and was injected at the rate of 0.1 ml of a 2% suspension made up in sterile saline into the right hind paw. (The left hind paw was injected with 0.1 ml saline only and served as the control foot.)
Male rats of Sprague-Dawley strain and with a weight of 250-350 g were injected intraperitoneally with 0.1-0.5 ml/100 g body weight of an aqueous solution or suspension. Oral administration was carried out as described under (a). Examination of the acute toxicity was carried out after 7 days.

Water solubility = type: physicochemical; conditions: for solubility / Solubility in g per l water at 25° C, white gel / thick syrup: water
Method: It is primarily for the purpose of providing water solubility to the steryl monosaccharides that the compounds of this invention, the dicarboxylic acid half ester derivatives and their salts, were prepared.
A solution of succinic anhydride (8.6 g, 0.086 mole) and anhydrous sitosteryl β-D-glucoside (24.7 g, 0.043 mole) in anhydrous pyridine (90 ml) was refluxed for 30 minutes and then left to stand for 20 hrs before it was poured into vigorously stirred conc. hydrochloric acid (104 ml) at ice temperature. The mixture was allowed to stand for 2 hrs before the precipitated hemiester was gravity filtered. The collected solid, washed with iced water until the washings were neutral, was dried in a vacuum oven and a small sample of this was dried to constant weight for a C and H analysis.
The standard preparation of the sterolin dicarboxylic acid hemiester salts illustrated by the preparation of the disodium salt of sitosteryl β-D-glucoside dihemisuccinate. The wet sitosteryl β-D-glucoside dihemisuccinate washed clear of hydrochloric acid as described in Example 1 was transferred quantitatively into a sodium bicarbonate solution (200 ml water; 7.2 g or 0.086 mole NaHCO3). This mixture cooled to 0° C. was slowly poured with vigorous stirring into ice cold acetone (2000 ml) and the white precipitate of the salt was allowed to settle over 18 hrs in an ice chest before it was filtered under suction. The moist salt was thoroughly stirred into ice cold acetone (200 ml), the slurry suction filtered and the filter cake washed with cold ether before the product was dried in a vacuum oven at 40° C. for 48 hrs followed by 2×1 minute heating in a microoven.

[3] = tested on: rat paw-oedema / inflammation (Brewer's Yeast); assay: Anti-inflammatory effect, Brewer's Yeast rat paw oedema, oral administration; type: in vivo, male Sprague-Dawley rats
Method: Twenty male Sprague-Dawley rats, (original supplier: Blue Spruce; Altamont U.S.A.) weighing 240-260 g, were acclimatized for at least 10 days to the test environment.
as §2
as §1, with “side. The results obtained from the treated groups were compared to the relevant control groups which received a similar volume of the aqueous Tylose®-solution only and the difference was expressed as a percentage increase or decrease over the control value.” for “side.”

[4] = in vivo, ip
[5] = Oral toxicity studies in rats (acute and prolonged daily dosing); type: in vivo
Method: (§3) Preferred daily doses of the compounds of this invention depend on the purpose for which they are used, administered or applied and also whether they are given by oral or parenteral routes or applied topically. […] They may be toxic when administered in large amounts and therefore the oral route is preferred. […] If taken for prophylactic purposes by healthy individuals a daily dose of 0.01-0.1 mg is adequate, although this may be raised to 0.2-1 mg for elderly people. Depending on the severity of a degenerative disease daily doses of 0.3-44 mg may be used for initial treatment until on improvement of the particular condition, a maintenance dose of 0.03-0.6 mg per day is advisable. Lower daily doses are required when these compounds are administered parenterally (e.g. via an intravenous drip). It should be noted that with respect to animals a preferred dose is difficult to predict since it is known that marked differences exist between species and even various breeds or strains of animals in their ability to utilise or react to steroidal glycosides (44-46).

[6] = Oral toxicity studies in primates (acute and prolonged daily dosing); type: in vivo
Method: as §3

With CCC(CCC(C)C1CCC2C3CC=C4CC(OC5OC(COC(=O)CCC(=O)O)C(OC(=O)CCC(=O)O)C(OC(=O)CCC(=O)O)C5OC(=O)CCC(=O)O)CCC4(C)C3CCC12C)C(C)C (stereo not drawn) [S.G. tetrahemisuccinate] the “Reduction of the inflammatory response in the rat-paw oedema trials in %” value ([1]; (50) mg/kg body weight, TABLE 2, time not given) was -46.3%, the “Acute toxicity after a single dose (% at dose)” value (“Acute toxicity … (% at dose)” for short) ([2]; 100 mg/kg) was 20% and the “Acute toxicity … (% at dose)” value ([2]; 200 mg/kg) was 100%.

CC[C@H](CC[C@@H](C)[C@H]1CC[C@H]2[C@@H]3CC=C4C[C@@H](O[C@@H]5O[C@H](CO)[C@@H](O)[C@H](O)[C@H]5O)CC[C@]4(C)[C@H]3CC[C@]12C)C(C)C [S.G., sitosteryl β-D-glucoside, reference compound] showed a solubility (Water solubility) of 0.009 mg/mL (≈ 15.6 µM).

CC[C@H](CC[C@@H](C)[C@H]1CC[C@H]2[C@@H]3CC=C4C[C@@H](O[C@@H]5O[C@H](CO)[C@@H](O[C@H]6O[C@H](CO)[C@@H](O)[C@H](O)[C@H]6O)[C@H](O)[C@H]5O)CC[C@]4(C)[C@H]3CC[C@]12C)C(C)C [S.M., sitosteryl β-D-maltoside, reference compound] gave a solubility (Water solubility) of 0.38 mg/mL (≈ 514 µM).

With “disodium salt of sitosteryl β-D-glucoside dihemisuccinate [S.G. dihemisuccinate Na2 salt]” the “Average percentage reduction of rat paw-oedema / inflammation” value ([1]; single dose 25 mg/kg 1 hour before challenge, after 5 hours) was 27%, the “Average percentage reduction of rat paw-oedema / inflammation” value ([1]; single dose 25 mg/kg 1 hour before challenge, after 24 hours) was 14% and the “Average percentage reduction of rat paw-oedema / inflammation” value ([1]; single dose 50 mg/kg 1 hour before challenge, after 5 hours) was 47%. For the same molecule, the “Average percentage reduction of rat paw-oedema / inflammation” value ([1]; single dose 50 mg/kg 1 hour before challenge, after 24 hours) was 35%, the “Solubility in g per l water at 25° C, white gel / thick syrup” value (Water solubility) was 5×10^2 g per l and the solubility (Water solubility) was 2000 mg/mL. For the same molecule, the “Average percentage reduction of rat paw-oedema / inflammation” value ([3]; 500 mg/kg given 24,0 and 1,0 hour before challenge, after 5 hours) was 8,5%, the “Average percentage reduction of rat paw-oedema / inflammation” value ([3]; 500 mg/kg given 24,0 and 1,0 hour before challenge, after 24 hours) was 10,7% and the “Average percentage reduction of rat paw-oedema / inflammation” value ([3]; 1000 mg/kg given 24,0 and 1,0 hour before challenge, after 5 hours) was 14,5%. For the same molecule, the “Average percentage reduction of rat paw-oedema / inflammation” value ([3]; 1000 mg/kg given 24,0 and 1,0 hour before challenge, after 24 hours) was 18,5% and the “Adverse effects and tissue toxicity” value [4] was “fewer adverse effects coupled with a lower tissue toxicity”.

For “sitosteryl β-D-glucoside dihemisuccinate [S.G. dihemisuccinate]”, the “Solubility (state or result in words)” value (Water solubility) was “colloidal”, the “Solubility in g per l water at 25° C, white gel / thick syrup” value (Water solubility) was 5×10^2 g per l and the solubility (Water solubility) was 1,25×10^3 g/l. For the same molecule, the “Acute toxicity … (% at dose)” value ([2]; 100 mg/kg) was 25%, the “Tolerance of prolonged daily doses” value ([5]; rat, in vivo) was “well tolerated” and the “Acute toxicity studies, toxic effects” value ([5]; rats, oral, even in excess of 1000-2000 mg/kg) was “no toxic effects”. The “Tolerance of prolonged daily doses” value ([6]; in vivo) was “well tolerated” and the “Acute toxicity studies, toxic effects” value ([6]; primates, oral, even in excess of 1000-2000 mg/kg) was “no toxic effects”.
